Results on one compound are retold here after patent publication US20240315991A1, “USES OF HNF4 ALPHA AGONISTS” (Sanford Burnham Prebys Medical Discovery Institute, priority 2023, published 2024).

In one data set the test system is PPARγ mRNA. The data set is described as follows: RT-PCR of mouse liver, PPARγ. It counts as in vivo. As to conditions: HFD+NCT vs HFD, to the level of mice on normal chow, FIG. 3N. How it is done: (§1) NCT oral administration. Four-week-old male C57BL/6J (JAX cat #000664) mice were purchased from Jackson laboratory and were maintained in a 12 h light/dark cycle throughout the experiment. Prior to the experiments, mice were acclimated for 2 weeks. Six-week-old mice with similar body weights were randomized to a normal diet (NC), a high fat diet (HFD) (Research Diets, cat #D12492 60 kcal % fat) or HFD containing 4000 ppm NCT (HFD+NCT) (Research Diets, 60 kcal % fat+4000 ppm NCT), which was calculated to provide approximately 400 mg/kg/d NCT. HFD chow containing NCT was made with gray dye to distinguish it from regular HFD chow that had green dye. Mice for each treatment group were placed in separate cages. Equal amounts of fresh chow were provided every week to all mice. Body weight gain and food intake were measured every week for 10 weeks. After 10 weeks of chow treatment, mice were sacrificed for analysis. […]
(§2) RT-PCR. […] Quantitative real time PCR (RT-PCR) analysis was performed using SYBR® Select Master Mix (Applied Biosystems) and an ABI 7900HT thermal cycler (Applied Biosystems, Thermo Fisher Scientific). Ct values were normalized to 18s rRNA and are expressed as fold change over samples from mice fed NC or cultured human hepatocytes without NCT.

The test system of data set [1] is DNA encoding the mitochondrial genes ND1. The data set can be described thus: Mitochondrial DNA analysis of liver, ND1. It counts as in vivo. The settings on record: mouse liver, HFD+NCT vs HFD, FIG. 3K. How it is done:
(§3) NCT oral administration. Four-week-old male C57BL/6J (JAX cat #000664) mice were purchased from Jackson laboratory and were maintained in a 12 h light/dark cycle throughout the experiment. Prior to the experiments, mice were acclimated for 2 weeks. Six-week-old mice with similar body weights were randomized to a normal diet (NC), a high fat diet (HFD) (Research Diets, cat #D12492 60 kcal % fat) or HFD containing 4000 ppm NCT (HFD+NCT) (Research Diets, 60 kcal % fat+4000 ppm NCT), which was calculated to provide approximately 400 mg/kg/d NCT. HFD chow containing NCT was made with gray dye to distinguish it from regular HFD chow that had green dye. Mice for each treatment group were placed in separate cages. Equal amounts of fresh chow were provided every week to all mice. Body weight gain and food intake were measured every week for 10 weeks. After 10 weeks of chow treatment, mice were sacrificed for analysis. All animal experiments were approved by the Institutional Animal Care and Use Committee (IACUC) of the Sanford Burnham Prebys Medical Discovery Institute in accordance with national regulations. Sample size was chosen based on the prior study of NCT delivered by IP injection.
(§4) Quantification of mtDNA was performed. […]

The next data set has as its system cytochrome C mRNA. The data set is described as follows: RT-PCR of mouse liver, cytochrome C. It counts as in vivo. As to conditions: HFD vs. HFD+NCT, FIG. 3G. The protocol: as §1, §2
A further data set deals with VDAC1. The data set can be described thus: VDAC1 immunofluorescence of liver sections. The data set is classed as in vivo, mouse. The settings on record: HFD+NCT vs HFD, FIGS. 3A-3C. The protocol:
as §1
(§5) Immunofluorescence. […] Slides were mounted using fluorescence mounting medium and images were obtained at ×40 magnification using an Olympus IX71 fluorescence microscope. Fluorescence intensity of HNF4α-stained nuclei and VDAC stained mitochondria was calculated using MetaMorph TL software (version 7.6.5.0, Olympus). Fold change was calculated by normalizing to values from mice fed NC.

Another data set deals with Sirt3 mRNA. The data set is described as follows: RT-PCR of primary human hepatocytes, Sirtuin3. It counts as cell-based. The settings on record: HEP-fat media, NCT 5, 15, and 40 μM, FIG. 4H. The protocol: (§6) Primary human hepatocytes. Experiments with primary human hepatocytes were performed by CN-Bio (Cambridge, UK). Briefly, primary human hepatocytes (PHHs), human Kupffer cells (HKs) and human stellate cells (HSCs) were seeded onto CN-Bio's PhysioMimix LC12 MPS culture plates at 6×10^5 cells for PHHs and 6×10^4 cells for HKs and HSCs in 1.6 ml of CN-Bio's HEP-lean media with 5% FCS. Throughout the experiment the cells were maintained at a flow rate of 1 μl/s. After 24 hours (Day 1) of seeding, the media was changed to HEP-lean media and the cells were incubated until day 4 to allow the cells to form microtissues. At day 4 post seeding, media was changed to HEP-fat media and treated with DMSO or NCT (5, 15, and 40 μM). Media was replaced on days 6 and 8. Cells were harvested on day 10 for RNA extraction and culture media was collected for ELISA analysis.
as §2

In a further data set the target is T1, HNF4α (Mus musculus, UniProt P49698).
T1 construct: from tissue; host or cells: liver of C57BL/6J mice
The data set can be described thus: HNF4α immunofluorescence of liver sections. The data set is classed as in vivo. As to conditions: C57BL/6 mice, HFD containing 4000 ppm NCT (approximately 400 mg/kg/d), oral, 10 weeks, vs HFD. How it is done:
as §1, with “Equal amounts of fresh chow were provided every week to all mice.” left out, “weeks.” for “weeks. After 10 weeks of chow treatment, mice were sacrificed for analysis.”
as §5
C57BL/6 mice were fed normal chow (NC), a high fat diet (HFD), or a high fat diet containing 4000 ppm NCT (HFD+NCT) for 10 weeks. […] The fold change was calculated vs. NC (NC, N=3, HFD and HFD+NCT, N=12). […]

Another data set has as its system HSP60 mRNA. The data set is described as follows: RT-PCR of mouse liver, HSP60. The data set is classed as in vivo. As to conditions: HFD+NCT vs HFD, FIG. 3M. The protocol:
as §1, §2

Another data set relates to TNFα mRNA. The data set can be described thus: RT-PCR of primary human hepatocytes, TNFα. The data set is classed as cell-based. As to conditions: HEP-fat media, NCT 5, 15, and 40 μM, dose-responsive manner, FIG. 5F. The protocol: as §6, §2
The test system of the next data set is IL-6 mRNA. The data set can be described thus: RT-PCR of primary human hepatocytes, IL-6. The data set is classed as cell-based. As to conditions: HEP-fat media, NCT 5, 15, and 40 μM, FIG. 5E. The protocol: as §6, §2
The subject of data set [2] is DNA encoding the mitochondrial genes 16s rRNA. The data set is described as follows: Mitochondrial DNA analysis of liver, 16s rRNA. The data set is classed as in vivo. The settings on record: mouse liver, HFD+NCT vs HFD, FIG. 3L. The protocol: as §3, §4

T1 sequence (P49698 whole entry): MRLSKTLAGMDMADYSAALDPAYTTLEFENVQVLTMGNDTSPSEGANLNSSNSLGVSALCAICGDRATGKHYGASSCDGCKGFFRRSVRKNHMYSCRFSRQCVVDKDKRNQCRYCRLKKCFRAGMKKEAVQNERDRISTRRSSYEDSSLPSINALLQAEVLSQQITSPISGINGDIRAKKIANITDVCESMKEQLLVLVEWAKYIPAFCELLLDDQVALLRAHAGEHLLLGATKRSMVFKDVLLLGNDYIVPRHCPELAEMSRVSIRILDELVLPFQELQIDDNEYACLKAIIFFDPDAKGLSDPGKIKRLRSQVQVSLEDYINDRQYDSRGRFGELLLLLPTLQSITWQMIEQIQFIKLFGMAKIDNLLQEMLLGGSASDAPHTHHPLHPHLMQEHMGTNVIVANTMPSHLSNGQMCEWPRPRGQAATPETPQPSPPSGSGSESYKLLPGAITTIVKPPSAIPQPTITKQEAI

Regarding `O=C(/C=C/c1ccc(O)c(O)c1)NCCc1ccc(O)cc1` [NCT, N-trans caffeoyltyramine], the “PPARγ expression in liver” value with PPARγ mRNA was “reduce”. Besides, in data set [1], the “level of DNA encoding the mitochondrial genes ND1” value is recorded as “increase”. In addition, the “cytochrome C mRNA levels in mouse livers” value in the data set with cytochrome C mRNA is on record as “non-significant”. In addition, in the data set on VDAC1, the “VDAC1 level in liver” value is reported as “reverse the depression”. Also, the “Sirt3 mRNA in primary human hepatocytes” value with Sirt3 mRNA was “reverse the depression”. Besides, the “HNF4α expression in liver (HNF4α fluorescence intensity)” value on HNF4α is “reversed”. Also, in the data set with HSP60 mRNA, the “HSP60 mRNA level in liver” value is “reverse the induction”. The “TNFα mRNA level in cultured human hepatocytes” value in the data set with TNFα mRNA is recorded as “decrease”. Also, in the data set with IL-6 mRNA, the “IL-6 mRNA level in cultured human hepatocytes” value was “decrease”. In data set [2], the “level of DNA encoding the mitochondrial genes 16s rRNA” value was “increase”.
